Where “and” joins values, the source holds several entries; their conditions need not be identical. Equal values may be shown once. Toxic doses and inconclusive results are not listed.
System: BDF1 mice, P388 leukemia ip, median survival T/C
Assay: NCI In Vivo Anticancer Drug Screen. Data for tumor model P388 Leukemia (intraperitoneal) in B6D2F1 (BDF1) mice
Conditions: endpoint: median survival time, higher = longer survival
Procedure, shortened: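 Each value expresses how treatment altered survival: treated-mouse outcome over vehicle-mouse outcome, both groups bearing the transplanted tumour.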

[1] = dose: 50.0 mg/kg/injection, schedule: Q01DX009 (ip), vehicle: saline with Tween-80
[2] = dose: 100.0 mg/kg/injection, schedule: Q01DX009 (ip), vehicle: saline with Tween-80
[3] = dose: 200.0 mg/kg/injection, schedule: Q01DX009 (ip), vehicle: saline with Tween-80
[4] = dose: 50.0 mg/kg/injection, schedule: Q01DX009 (ip), vehicle: saline
[5] = dose: 50.0 mg/kg/injection, schedule: Q04DX003 (ip), vehicle: saline
[6] = dose: 100.0 mg/kg/injection, schedule: Q01DX009 (ip), vehicle: saline
[7] = dose: 100.0 mg/kg/injection, schedule: Q04DX003 (ip), vehicle: saline
[8] = dose: 400.0 mg/kg/injection, schedule: Q01DX009 (ip), vehicle: saline
[9] = dose: 25.0 mg/kg/injection, schedule: Q01DX009 (ip), vehicle: other
[10] = dose: 50.0 mg/kg/injection, schedule: Q01DX009 (ip), vehicle: other
[11] = dose: 100.0 mg/kg/injection, schedule: Q01DX009 (ip), vehicle: other
[12] = dose: 200.0 mg/kg/injection, schedule: Q01DX009 (ip), vehicle: other
[13] = dose: 25.0 mg/kg/injection, schedule: Q01DX009 (ip), vehicle: Klucel (hydroxypropylcellulose) (HPC)
[14] = dose: 50.0 mg/kg/injection, schedule: Q01DX009 (ip), vehicle: Klucel (hydroxypropylcellulose) (HPC)
[15] = dose: 200.0 mg/kg/injection, schedule: Q04DX003 (ip), vehicle: saline

Structure (SMILES): Cc1cc2c(c(O)c1CN1CCOCC1)C1=C(CCCC1)C(C)(C)O2
- T/C (dose: 1.0 mg/kg/injection, schedule: Q01DX001 (ip), vehicle: Klucel (hydroxypropylcellulose) (HPC)): 99 % of control
- T/C (dose: 2.0 mg/kg/injection, schedule: Q01DX001 (ip), vehicle: Klucel (hydroxypropylcellulose) (HPC)): 112 % of control
- T/C (dose: 4.0 mg/kg/injection, schedule: Q01DX001 (ip), vehicle: Klucel (hydroxypropylcellulose) (HPC)): 104 % of control
- T/C (dose: 8.0 mg/kg/injection, schedule: Q01DX001 (ip), vehicle: Klucel (hydroxypropylcellulose) (HPC)): 104 % of control
- T/C (dose: 16.0 mg/kg/injection, schedule: Q01DX001 (ip), vehicle: Klucel (hydroxypropylcellulose) (HPC)): 109 % of control
- T/C (dose: 32.0 mg/kg/injection, schedule: Q01DX001 (ip), vehicle: Klucel (hydroxypropylcellulose) (HPC)): 98 % of control
- T/C (dose: 64.0 mg/kg/injection, schedule: Q01DX001 (ip), vehicle: Klucel (hydroxypropylcellulose) (HPC)): 96 % of control
- T/C (dose: 128.0 mg/kg/injection, schedule: Q01DX001 (ip), vehicle: Klucel (hydroxypropylcellulose) (HPC)): 106 % of control
- T/C (dose: 256.0 mg/kg/injection, schedule: Q01DX001 (ip), vehicle: Klucel (hydroxypropylcellulose) (HPC)): 98 % of control

Structure (SMILES): NC(=O)c1nc(-c2ccccc2)c(-c2ccccc2)[nH]c1=O
- T/C [1]: 109 % of control
- T/C [2]: 117 % of control
- T/C (dose: 100.0 mg/kg/injection, schedule: Q04DX003 (ip), vehicle: saline with Tween-80): 106 % of control
- T/C [3]: 99 % of control
- T/C (dose: 200.0 mg/kg/injection, schedule: Q04DX003 (ip), vehicle: saline with Tween-80): 102 % of control
- T/C (dose: 400.0 mg/kg/injection, schedule: Q04DX003 (ip), vehicle: saline with Tween-80): 116 % of control

Structure (SMILES): CCCCNC(C)(C)C(=O)c1cccs1
- T/C (dose: 25.0 mg/kg/injection, schedule: Q01DX009 (ip), vehicle: saline): 100 % of control
- T/C [4]: 100 % of control
- T/C [5]: 100 % of control
- T/C [6]: 100 % of control
- T/C [7]: 118 % of control

Structure (SMILES): Clc1c(CI)ccc(CI)c1Cl
- T/C (dose: 11.0 mg/kg/injection, schedule: Q04DX003 (ip), vehicle: Klucel (hydroxypropylcellulose) (HPC)): 100 % of control
- T/C (dose: 12.5 mg/kg/injection, schedule: Q01DX009 (ip), vehicle: saline sonified): 113 % of control
- T/C (dose: 16.5 mg/kg/injection, schedule: Q01DX009 (ip), vehicle: saline with Tween-80): 90 % of control
- T/C (dose: 16.5 mg/kg/injection, schedule: Q04DX003 (ip), vehicle: Klucel (hydroxypropylcellulose) (HPC)): 100 % of control
- T/C (dose: 16.5 mg/kg/injection, schedule: Q04DX003 (ip), vehicle: saline sonified): 122 % of control
- T/C (dose: 25.0 mg/kg/injection, schedule: Q01DX009 (ip), vehicle: saline with Tween-80): 90 % of control
- T/C (dose: 25.0 mg/kg/injection, schedule: Q04DX003 (ip), vehicle: Klucel (hydroxypropylcellulose) (HPC)): 109 % of control
- T/C (dose: 37.5 mg/kg/injection, schedule: Q04DX003 (ip), vehicle: Klucel (hydroxypropylcellulose) (HPC)): 109 % of control
- T/C (dose: 50.0 mg/kg/injection, schedule: Q01DX009 (ip), vehicle: saline sonified): 118 % of control
- T/C (dose: 50.0 mg/kg/injection, schedule: Q04DX003 (ip), vehicle: Klucel (hydroxypropylcellulose) (HPC)): 110 % of control
- T/C (dose: 100.0 mg/kg/injection, schedule: Q04DX003 (ip), vehicle: Klucel (hydroxypropylcellulose) (HPC)): 120 % of control

Structure (SMILES): CS/C(N)=N/N
- T/C (dose: 6.25 mg/kg/injection, schedule: Q04DX003 (ip), vehicle: saline): 95 % of control
- T/C (dose: 12.5 mg/kg/injection, schedule: Q04DX003 (ip), vehicle: saline): 108 % of control

Structure (SMILES): COc1cc2c(cc1OC)-c1cc3cc(OC)c(OC)cc3c(CCC(=O)O)[n+]1CC2 (tested in a mixture with another compound)
- T/C [6]: 106 % of control
- T/C (dose: 200.0 mg/kg/injection, schedule: Q01DX009 (ip), vehicle: saline): 92 % of control
- T/C [8]: 90 % of control

Structure (SMILES): CCCCCCCCCCCCCCCCCCOc1cccc(C(F)(F)F)c1
- T/C (dose: 50.0 mg/kg/injection, schedule: Q01DX001 (ip), vehicle: saline with Tween-80): 105 % of control
- T/C (dose: 100.0 mg/kg/injection, schedule: Q01DX001 (ip), vehicle: saline with Tween-80): 100 % of control
- T/C (dose: 200.0 mg/kg/injection, schedule: Q01DX001 (ip), vehicle: saline with Tween-80): 90 % of control

Structure (SMILES): COC(=O)C1C2(C)CCc3cc(OC)ccc3C2=CC(=O)C1(C)C(=O)OC (stereo not given)
- T/C (dose: 50.0 mg/kg/injection, schedule: Q04DX003 (sc), vehicle: steriod suspending solution): 100 % of control
- T/C (dose: 100.0 mg/kg/injection, schedule: Q04DX003 (sc), vehicle: steriod suspending solution): 90 % of control

Structure (SMILES): CCOC(=O)c1c(C)nc(C)c(C(=O)OCC)c1-c1cccnc1
- T/C (dose: 12.5 mg/kg/injection, schedule: Q01DX009 (ip), vehicle: other): 101 % of control
- T/C [9]: 100 % of control
- T/C [10]: 100 % of control
- T/C [11]: 110 % of control
- T/C [12]: 112 % of control

Structure (SMILES): CCC[N+](CCC)(CCC)CCC.N#CN=C([SH2+])[SH2+].N#CN=C([SH2+])[SH2+].[Pt+2]
- T/C [5]: 100 % of control

Structure (SMILES): CC1CCC2(OC1)OC1CC3C4CCC5CC(O)C(O)CC5(C)C4CCC3(C)C1C2C (stereo not given)
- T/C (dose: 100.0 mg/kg/injection, schedule: Q04DX003 (ip), vehicle: other): 91 % of control
- T/C (dose: 200.0 mg/kg/injection, schedule: Q04DX003 (ip), vehicle: other): 87 % of control
- T/C (dose: 400.0 mg/kg/injection, schedule: Q04DX003 (ip), vehicle: other): 87 % of control

Structure (SMILES): COc1ccc(Br)c(C=O)c1OS(=O)(=O)c1ccc(C)cc1
- T/C [9]: 100 % of control
- T/C [10]: 110 % of control
- T/C [11]: 94 % of control
- T/C [12]: 99 % of control
- T/C (dose: 400.0 mg/kg/injection, schedule: Q01DX009 (ip), vehicle: other): 95 % of control

Structure (SMILES): C=CCOC(=O)c1ccco1
- T/C (dose: 6.25 mg/kg/injection, schedule: Q01DX009 (ip), vehicle: Klucel (hydroxypropylcellulose) (HPC)): 116 % of control
- T/C (dose: 12.5 mg/kg/injection, schedule: Q01DX009 (ip), vehicle: Klucel (hydroxypropylcellulose) (HPC)): 108 % of control
- T/C [13]: 108 % of control
- T/C [14]: 100 % of control

Structure (SMILES): S=C1NC2=S(N=C(Nc3ccccc3)N2c2ccccc2)S1 (stereo not given)
- T/C [1]: 94 % of control
- T/C [2]: 96 % of control
- T/C [3]: 93 % of control

Structure (SMILES): O=Nc1ccc(O)c2ncccc12
- T/C (dose: 50.0 mg/kg/injection, schedule: Q01DX001 (ip), vehicle: Klucel (hydroxypropylcellulose) (HPC)): 118 % of control

Structure (SMILES): O=S(=O)(O)CCN(CCO)CCO
- T/C [6]: 87 % of control
- T/C [7]: 109 % of control
- T/C [15]: 104 % of control
- T/C [8]: 87 % of control
- T/C (dose: 400.0 mg/kg/injection, schedule: Q04DX003 (ip), vehicle: saline): 95 % of control

Structure (SMILES): CCCCc1ccc(C#N)nc1
- T/C [1]: 98 % of control
- T/C [2]: 106 % of control
- T/C [3]: 108 % of control

Structure (SMILES): CCS(=O)(=O)OCCCl
- T/C [13]: 100 % of control
- T/C (dose: 44.0 mg/kg/injection, schedule: Q01DX009 (ip), vehicle: saline): 104 % of control
- T/C [14]: 100 % of control
- T/C [1]: 103 % of control
- T/C [4]: 161 % of control
- T/C (dose: 66.0 mg/kg/injection, schedule: Q01DX009 (ip), vehicle: saline): 108 % of control
- T/C (dose: 100.0 mg/kg/injection, schedule: Q01DX009 (ip), vehicle: Klucel (hydroxypropylcellulose) (HPC)): 105 % of control
- T/C [2]: 104 % of control
- T/C [6]: 230 % of control and 95 % of control and 108 % of control
- T/C [7]: 100 % of control
- T/C (dose: 150.0 mg/kg/injection, schedule: Q01DX009 (ip), vehicle: saline): 120 % of control
- T/C [3]: 116 % of control
- T/C [15]: 91 % of control

Structure (SMILES): Cc1c(Cl)cccc1NC(=O)/C=C/C(=O)O
- T/C (dose: 44.0 mg/kg/injection, schedule: Q01DX009 (ip), vehicle: saline with Tween-80): 95 % of control
- T/C [1]: 122 % of control
- T/C (dose: 66.0 mg/kg/injection, schedule: Q01DX009 (ip), vehicle: saline with Tween-80): 100 % of control
- T/C [2]: 100 % of control
- T/C (dose: 150.0 mg/kg/injection, schedule: Q01DX009 (ip), vehicle: saline with Tween-80): 104 % of control
- T/C [3]: 109 % of control

— PubChem BioAssay AID328 (DTP/NCI, 2004)
